Patent publication US11485728B2, “Small molecules for the treatment of autoimmune diseases and cancer” (Athos Therapeutics, Inc., priority 2020, dated 2022)
One block for each compound: values may come before it.

How the values were obtained:
HCT-116 = HCT-116 cell viability (Real-Time-Glo); type: cell-based; conditions: Homo sapiens, 72 hr, read-out: IC50, Cell line: HCT-116
Description: (§1) To determine the plating density for cell viability assays, for each cell line, cells were counted and diluted to final densities of 2.5, 5, 10 and 20 thousand per 100 μl of their respective growth media per well in 96 well plates. A Promega Real-Time-Glo cell viability kit was used to determine the optimal concentration for cell plating so that each cell line would be within the linear part of its growth curve after 72 hrs in culture. […] Test compounds were then added at different concentrations for the creation of six-point curve and cell density was determined using the Promega Real-Time-Glo cell viability kit after 24, 48, and 72 hrs in culture.

[1] = In-vitro half-life in rat liver microsomes; type: in vitro ADME; conditions: Rat liver microsomes 0.5 mg/mL; 1 μg/mL drug; NRS; read-out: Metabolic Half-life
Description: (§2) In each of the species (human, rat, mouse) of liver matrix to be tested, a working concentration of 2 μg/mL was prepared of each test article from the 0.5 mg/mL DMSO stock solution by adding 3 μL of 0.5 mg/mL test article stock solution to 747 μL of the 1 mg/mL liver matrix. Incubation was performed at 37±2° C. with gentle, continuous mixing in shaking water bath in 2.0 mL-well capacity 96-Deepwell plates (96-DWP). Samples were retrieved in duplicate at the following time points: 0, 5, 10, 15, 30 and 60 minutes. The final mixture contained 1 μg/mL of drug and 0.5 mg/mL of liver matrix. First, 50 μL of test articles in liver matrix was added to the 96-DWP and pre-warmed the mixture in the 96-DWP for 2 minutes in the 37° C. water bath. The enzymatic reaction was started by the addition of 50 μL of the corresponding 2× NADPH regenerating system (NRS) cofactor solution to all sample wells and stopped by the addition of 300 μL of stop solution (acetonitrile containing 10 ng/mL Tolbutamide as an internal standard (I.Std.). The samples were agitated for 10 minutes and then centrifuged for 20 minutes at 4500 rpm. 25 μL of supernatant was diluted with 475 μL acetonitrile containing I. Std. into a new 96-DWPs for LC-MS/MS analysis.
(§3) Half-life calculations were generated and calculated by Graphpad Prism® software. The half-life of test compound was calculated based on the first-order reaction kinetics. The data was transformed to linear regression (y=log(y) where “y” axis represents the % compound remaining at any given time with respect to time 0 minutes; “x” axis represents time in minutes) in order to calculate the half-life.
(§4) A comparison of metabolic stability in time-course incubation experiments in varying species of liver can provide information of pharmacokinetic properties of drugs attributable to species-related differences in hepatic metabolism. The results of these experiments often assist in further applications such as assessing in vitro metabolite profiling and choosing relevant species for toxicology studies based on similarities relative to the metabolic stability to the human profile. For these experiments, the test compound was tested in parallel with a positive control, Dasatinab, in an enzymatic reaction solution of each species (human and rat) of liver microsomes containing a NADPH regenerating system (NRS). The final mixture contained 1 μg/mL of drug and 0.5 mg/mL of liver matrix. Incubations were performed at 37±2° C. with gentle, continuous mixing in shaking water bath in 96-Deep well plates. The stability of the test compound is monitored using fast, specific and sensitive LC/MS/MS analysis.

PAMPA permeability = conditions: PAMPA, 5 hours at RT
[2] = Formulation visual stability (DMA/PG/PEG 300/water); type: physicochemical; conditions: 25° C., 10-11 mg/mL in DMA/PG/PEG 300/Water
Description: All formulations were conducted with FDA approved excipients and with high purity material such as USP grade quality. Formulation stability of test articles are performed using HPLC purity method described within analytical section. This formula may be used for oral administration of the compounds described herein; […]. Since these compounds have high solubility in lower pH as described in the solubility study section, the intervenous delivery is performed with 100% phosphate buffer solution of pH 6.5 allowing up to 7 mg/mL concentration. The formulated test articles can be store at 4° C. Prior to dosing, it should be warmed and vortexed for about 1 min to make a homogenous solution. If needed, filter through 0.2 μM syringe filter to maintain clean and sterile.

[3] = tested on: HT-29 colorectal cancer cells; assay: HT-29 cell viability (Real-Time-Glo); type: cell-based; conditions: Homo sapiens, HT-29; 72 hr; read-out: IC50, Cell line: HT-29
Description: Equal volume of 2× RealTime-Glo™ reagent (2 μl of MT Cell Viability Substrate 1,000×, and 2 μl of NanoLuc® Enzyme 1,000×, per 1 ml of media, Promega) was added to each well and cells were incubated at 37° C. Luminescence was evaluated at 72 h.
as §1
Specifically, the Promega Real-Time-Glo cell viability kit was used to determine the optimal concentration for cell plating so that each cell line would be within the linear part of its growth curve after 72 hrs in culture. […] Test compounds are then added at different concentrations for the creation of six-point curve and cell density is determined using the Promega Real-Time-Glo cell viability kit after 24, 48, and 72 hrs in culture. […]

[4] = In-vitro half-life in human liver microsomes; type: in vitro ADME; conditions: Human liver microsomes 0.5 mg/mL; 1 μg/mL drug; NRS; read-out: Metabolic Half-life
Description: as §2, §3, §4

[5] = In-vitro half-life in mouse liver microsomes; type: in vitro ADME; conditions: Mouse liver microsomes 0.5 mg/mL; 1 μg/mL drug; NRS; read-out: Metabolic Half-life
Description: as §2, §3, §4

[6] = cited from earlier work
mouse = conditions: oral; cited from earlier work

IC50 (HCT-116): 5 to 10 µM
half-life at 1 μg/mL [1]: > 1 h
Papp at 5 h, 20 μM (PAMPA permeability; PAMPA permeability Classification, 20 μM donor): < 0.055 ×10⁻⁶ cm/s
Papp at 5 h, 20 μM (PAMPA permeability; Permeability, Pe, 20 μM donor in PBS/MeOH 90:10): 0.00971 ×10⁻⁶ cm/s
Appearance ([2]; 30 min): clear
Appearance ([2]; 1 h): clear
Appearance ([2]; 5 h): clear
Appearance ([2]; 24 h): clear
Appearance ([2]; 7 d): clear
IC50 [3]: 10 to 20 µM
half-life at 1 μg/mL [4]: > 1 h
half-life at 1 μg/mL [5]: > 1 h
SMILES: COc1cc2c(NC3CCN(C4CCCCC4)CC3)nc(N3CCCN(C(C)C)CC3)nc2cc1OCCCN1CCCCC1 [Compound 402, reference compound]

SMILES: O=C(O)Cc1ccccc1Nc1c(Cl)cccc1Cl [Diclofenac]
permeability of positive control (published) [6]: high permeability

SMILES: CC(O)CO (centres unmarked) [PG, propylene glycol]
LD50 (mouse): 22000 mg/kg
